# Laboratory results as given in US8778961B2, “O-methylated rapamycin derivatives for alleviation and inhibition of lymphoproliferative disorders” (The Trustees of the University of Pennsylvania, priority 2000, dated 2014).
# Where “and” joins values, the source holds several entries; their conditions need not be identical. Identical values can stand only once.
# Legend:
# A1 line = experiment: apoptosis (Annexin V flow cytometry); assay type: cell-based, human; conditions: 24 hours
# Protocol: (§1) The cell lines to be examined were cultured with several concentrations of SDZ RAD (0 to 10 nanomolar) for 24-48 hours. The cells were washed with DPBS and stain solution (pH 7.2) containing 3% PEG 6000, 50 micrograms per milliliter DNA fluorochrome propidium iodide (PI; Calbiochem, San Diego, Calif.), annexin V-FITC as described (Douglas et al., 1998, Cytometry 32:57-65) 0.1% (v/v) TRITON™ X (Sigma, St. Louis, Mo.), 4 millimolar citrate buffer pH 7.8, and 360 units per milliliter RNase A (Worthington Biochemicals, Freehold, N.J.) for 30 minutes at 37 C. Next, salt solution pH 7.2 (3% w/v PEG 6000, PI 50 micrograms per milliliter, 0.1% v/v TRITON™ X, and 0.4 molar NaCl) was added, and the cells were incubated at 4° C. in the dark for 1 hour before flow cytometry analysis was performed, as described (Douglas et al., 1998, Cytometry 32:57-65; Kawamata et al., 1998, Blood 91:561-569; Pepper et al., 1998, Leuk. Res. 22:439-444).
# (§2) Previous studies have shown that immunosuppressive macrolides as represented by rapamycin can induce or enhance apoptosis stimulated by other agents (Gottschalk et al., 1994, Proc. Natl. Acad. Sci. USA 91:7350-7354; Muthukkumar et al., 1995, Transplantation 60:264-270; Shi et al., 1995, Cancer Res. 55:1982-1988; Hosoi et al., 1999, Cancer Res. 59:886-894). In order to determine if SDZ RAD affects the apoptotic rate in PTLD-like cells, we tested apoptosis-induced surface expression of Annexin V by flow cytometry in the 20A, A1, A2D6 cell lines (FIG. 3). […] In A2D6 line, it led to 11% increase, and in the 20A line to 12% increase. At the highest dose (10 nanomolar), SDZ RAD led to approximately 240% increase in A1 line and 45% increase in both A2D6 and 20A lines.
# 20A line = experiment: apoptosis (Annexin V flow cytometry); assay type: cell-based, human; conditions: 24 hours
# Protocol: as §1, §2
# A2D6 line = experiment: apoptosis (Annexin V flow cytometry); assay type: cell-based, human; conditions: 24 hours
# Protocol: as §1, §2
# 15A tumors = experiment: treatment of established xenotransplanted tumors in SCID mice; assay type: in vivo; conditions: 5 milligrams per kilogram daily gavage
# Protocol: (§3) Establishment and passaging of the xenotransplanted tumors was performed as described (Douglas et al., 1998, Cytometry 32:57-65; Kawamata et al., 1998, Blood 91:561-569; Pepper et al., 1998, Leuk. Res. 22:439-444). To deplete macrophages and NK cells and to enhance tumor engraftment, SCID mice were injected intraperitoneally with 30-45 milligrams per kilogram of etoposide (Bedford Laboratories, Bedford, Ohio) 4 days prior to implantation of the human EBV^+ B-cell lines (Visonneau et al., 1998, Am. J. Path. 152:1299-1311). Ten million cells of each line employed (see results) were inoculated into mice either intraperitoneally or subcutaneously in 200 microliters of Dulbecco's Phosphate Buffered Saline (DPBS; BioWhittaker, Walkersville, Md.). Ascites or palpable subcutaneous tumors developed 3-5 weeks after cell injection.
# (§4) Tumor treatment and growth inhibition experiments were performed using fragments of the established subcutaneous tumors (Pasqualucci et al., 1995, Blood 85:2139-2146, Visonneau et al., 1998, Am. J. Path. 152:1299-1311). For this purpose, mice were anesthetized with KETALAR™ (ketamine, Parke-Davis, Morris Plains, N.J.) by intraperitoneal injection of 100 milligrams per kilogram. Next, the primary tumor was aseptically removed and freed from necrotic, fatty and connective tissue and divided into small pieces of roughly equal size and 3-4 pieces per mouse were injected subcutaneously. Treatment of established tumors with SDZ RAD was started when tumors reached 5 millimeters diameter. In growth inhibition experiments, the treatment was initiated 3 days prior to the tumor implantation. Tumor volume in all experiments was determined from the equation: volume=0.4ab^2, where a and b designate respectively long and short diameter of the tumor. The transplanted mice were monitored for tumor growth for a period of up to 2 months. Five milligrams per kilogram of SDZ RAD was administered once a day by gavage as described (Schuurman et al., 1997, Transplantation 64:32-5; Schuler et al. 1997, Transplantation 64:36-42).
# (§5) Mice were sacrificed by exposure to FORANE™ (isoflurane, Ohmeda, Liberty Place, N.J.) on day 29 in the drug toxicity study, on day 40-55 in the tumor growth inhibition study or when tumors achieved approximately 2 centimeter diameter, or when ulceration of the skin, signs of severe respiratory distress, weakness, or lethargy appeared. Complete autopsy was performed on all mice at the end of the study regardless of their appearance. Tumor and internal organs (spleen, liver, lung, heart, kidney, small and large intestines, femoral bone for bone marrow) were fixed in 10% (v/v) formalin, embedded in paraffin, cut into […] sections, transferred to glass slides, and stained with hematoxylin and eosin. Representative tumor fragments were stained immunohistochemically by standard streptavidin-biotin complex technique using commercially available reagents (Research Genetics, Huntsville, Ala.), antibodies: anti-CD20 (L-26) and LMP-1 (both from DAKO, Carpinteria, Calif.) and Ki67 (mib1; Immunotech, Westbrook, Me.). EBV-encoded RNA (EBER-1), and detected using commercially available reagents.
# (§6) In order to determine the in vivo effect of SDZ RAD on PTLD-like cells, 15A, 20A, and A1 cell line tumors were implanted into 7-15 SCID mice per cell line. Treatment was initiated once the tumors reached 5 millimeters diameter, which corresponds to a volume of 50 cubic millimeters. SDZ RAD was administered by daily gavage at 5 milligrams per kilogram, which represents a non-toxic and effective immunosuppressive dose (Schuurman et al., 1997, Transplantation 64:32-5; Schuler et al. 1997, Transplantation 64:36-42).
# 20A tumors = experiment: as above; assay type: in vivo
# Protocol: as §3, §4, §5, §6
# A1 cell line tumors = experiment: as above; assay type: in vivo
# Protocol: as §3, §4, §5, §6
# [1] = tested on: HTLV-I (+) T-cell lines ATL-2, C10MJ2, HUT102B; conditions: Zhang et al., 1999, Leukemia Res. 23:373-384; cited from earlier work
smiles,measurement,setting,value
"CO[C@H]1C[C@@H]2CC[C@@H](C)[C@@](O)(O2)C(=O)C(=O)N2CCCC[C@H]2C(=O)O[C@H]([C@H](C)C[C@@H]2CC[C@@H](OCCO)[C@H](OC)C2)CC(=O)[C@H](C)/C=C(\C)[C@@H](O)[C@@H](OC)C(=O)[C@H](C)C[C@H](C)/C=C/C=C/C=C/1C [SDZ RAD, 40-O-(2-hydroxy)ethyl-rapamycin]",increase in the number of apoptotic cells,A1 line; 1 nanomolar,approximately 60%
same,percentage of apoptotic cells,"A1 line; 1 nanomolar, from 10% without drug",16%
same,increase in the number of apoptotic cells,A1 line; 10 nanomolar,approximately 240%
same,increase in the number of apoptotic cells,20A line; 1 nanomolar,12%
same,increase in the number of apoptotic cells,20A line; 10 nanomolar,45%
same,increase in the number of apoptotic cells,A2D6 line; 1 nanomolar,11%
same,increase in the number of apoptotic cells,A2D6 line; 10 nanomolar,45%
same,effect on tumor growth,15A tumors; started at 5 millimeters tumor diameter,marked drug-induced delay of the tumor growth but no absolute tumor growth inhibition or regression
same,median tumor volume,"15A tumors; day 21, treated mice",approximately 240 cubic millimeters
same,tumor volume,"15A tumors; day 38, treated mice",around 1000 cubic millimeters
same,treated mice with significant regression in the tumor volume,20A tumors; 5 milligrams per kilogram daily gavage,6 out of 10
same,average treated tumor volume,"20A tumors; day 19, 5 milligrams per kilogram daily gavage, equal to initial tumor size",50 cubic millimeters
same,median tumor volume,"20A tumors; day 53, subset of mice with regression",< 5 cubic millimeters
same,mice with steady regression on further treatment,A1 cell line tumors; after day 21,all 8
same,tumors showing any evidence of growth,A1 cell line tumors; day 21,0/8
same,median volume of the treated tumors,"A1 cell line tumors; day 21, 5 milligrams per kilogram daily gavage",50 cubic millimeters
same,mean tumor volume,A1 cell line tumors; day 53,< 5 cubic millimeters
same,mice in which no lymphoma could be detected (total tumor eradication),"A1 cell line tumors; day 53, 8 treated mice",4 and 4 out of 8
same,mice with microscopically-confirmed residual lymphoma,"A1 cell line tumors; day 53, 8 treated mice",4
same,response of cell lines to the drug,[1],non-responsive
